We go through one molecule from PMC3042041 (ACS chemical biology, 2010).

The assay deals with T1, REV-ERBα (Homo sapiens, UniProt P20393).
T1 sequence (P20393 1-614): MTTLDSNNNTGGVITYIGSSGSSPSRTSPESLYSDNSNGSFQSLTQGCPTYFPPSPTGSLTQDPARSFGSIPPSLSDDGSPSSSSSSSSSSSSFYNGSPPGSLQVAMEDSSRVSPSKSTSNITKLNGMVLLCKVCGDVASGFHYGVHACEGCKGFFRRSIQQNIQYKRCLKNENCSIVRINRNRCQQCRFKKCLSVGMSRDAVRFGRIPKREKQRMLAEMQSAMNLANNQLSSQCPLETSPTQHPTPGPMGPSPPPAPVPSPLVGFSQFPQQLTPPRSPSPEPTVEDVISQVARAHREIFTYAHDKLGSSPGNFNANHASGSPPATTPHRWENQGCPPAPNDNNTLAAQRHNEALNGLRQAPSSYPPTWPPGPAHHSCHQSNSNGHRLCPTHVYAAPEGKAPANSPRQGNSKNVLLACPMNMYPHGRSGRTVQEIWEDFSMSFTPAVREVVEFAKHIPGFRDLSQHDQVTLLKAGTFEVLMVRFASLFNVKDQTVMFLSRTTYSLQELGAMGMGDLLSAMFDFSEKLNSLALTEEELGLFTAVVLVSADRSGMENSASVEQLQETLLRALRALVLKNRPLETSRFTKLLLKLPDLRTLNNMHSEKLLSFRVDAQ
Nature of the assay: Bmal1-luciferase / REV-ERBα cotransfection reporter assay in HEK293 cells. It is filed as cell-based.

Each structure is given as a SMILES string.

In general, IC50 refers to the concentration needed to halve the response being measured. Low values mean higher potency, high ones lower potency. Consider `CC(C)(C)OC(=O)CN(Cc1ccc(Cl)cc1)Cc1ccc([N+](=O)[O-])s1` [GSK4112], for which the IC50 turned out to be 2300 nM.
